Measured values as given in patent US20150196578A1, “COMBINATION THERAPY TREATMENT FOR VIRAL INFECTIONS” (priority 2009, published 2015).
Several values for one entry are separate records, joined by “and”; a condition that tells them apart may be missing. Identical values can stand only once. Like-named read-outs stand apart in the source and are kept apart here.

System: Influenza A/Duck/MN/1525/81 (H5N1) virus
Parameters: species or system BALB/c mice
Settings: mouse, in vivo

Compound | mean day of death (MDD) | mice survived to day 21 | survival rate [%] | mean day of death (MDD) (sodium salt)
CCOC(=O)C1=C[C@@H](OC(CC)CC)[C@H](NC(C)=O)[C@@H](N)C1 [oseltamivir] | 9.0 ± 0.0 days and 11.4 ± 1.8 days | 8 out of 10 | 70 | –
CC#CCC(C)[C@H](O)/C=C/[C@@H]1[C@H]2c3cccc(CCCC(=O)[O-])c3O[C@H]2C[C@H]1O.[Na+] (mixture of isomers) [beraprost, (+)-[1R,2R,3aS,8bS]-2,3,3a,8b-tetrahydro-2-hydroxyl-1-[(E)-(3S,4RS)-3-hydroxyl-4-methyl-1-octen-6-ynyl)-1H-cyclopenta[b]benzofuran-5-butanoic acid, sodium salt] | – | 6 of 10 | 50 | 9.0 ± 3.9 days and 8.0 ± 2.0 days
